A short description of data set [1]: Influence of cooling on ice and P100 protease inhibitor cocktail on peptide stability. The note with it: HPLC-MS/MS, measured in triple; for Effect of cooling with ice on stability: spiked on K2EDTA and P100 plasma, measured immediately and after 30 and 60 min on ice or at room temperature; for Influence of the P100 tube (protease inhibitor cocktail) on stability: P100 vs K2EDTA, immediately, 30 and 60 min on ice or at room temperature.
Experimental: The samples were measured immediately, and after 30 and 60 min on ice or at room temperature (Fig. 6). All samples were measured in triple.
The samples were measured immediately, or after 30 and 60 min on ice or at room temperature.

Data set [2] can be described thus: Stability of spiked synthetic peptides in plasma according to the preanalytical condition (immediately vs 60 min at room temperature). The following applies: HPLC-MS/MS; for Degradation at the immediate measurement in non-acidified conditions: non-acidified plasma, measured immediately after spiking; for Degradation after one hour at room temperature: spiked synthetic peptide; for Appearance of apelin-pyr-13 after spiking synthetic apelin-13: after 60 min.
Source text: We aimed to minimalize degradation after sampling with a preanalytical protocol summarized in Fig. 3, including immediate cooling and rapid processing of samples. […] However, acidification can be applied only after separation by centrifugation of whole blood into a plasma and a cell compartment, because acidification of whole blood would lead to hemolysis and coagulation, rendering the blood samples unsuitable for further measurements. Therefore, we used protease inhibitor cocktail-containing K2EDTA-coated P100 blood tubes and a mechanical plasma separator (366422 BD Biosciences, San Jose, CA, USA)[19]. The aim of the protease inhibitor cocktail is to inactivate proteolytic degradation by enzymes present in whole blood; the mechanical separator prevent contact with cell-bound enzymes, both theoretically limiting enzymatic degradation of apelin during the several minutes between blood collection in the tube and completed plasma separation and acidification.
Figure 3 Overview of preanalytical conditions. Samples were immediately cooled on ice and processed within 1 h. Both standard K2EDTA tubes and P100 prechilled tubes containing a protease inhibitor cocktail and mechanical separator were used. The standard K2EDTA was centrifuged for 10 min 1300 × g at 4 °C, while the P100 tube was centrifuged for 20 min 2500 × g at 4 °C, according to the manufacturers’ instructions. After separation, plasma was untreated or acidified to either pH 2.5 or 4.5 by adding the plasma to low protein-binding tubes pre-filled with either phosphoric acid or formic acid. The plasma samples were stored directly at − 20 °C and transferred within 4 h at − 80 °C.
Spiking of individual peptides was performed on plasma collected in K2EDTA tubes, stored either non-acidified, or acidified to pH 4.5 or pH 2.5 and on plasma collected in P100 tubes, stored either non-acidified, or acidified to pH 4.5 and pH 2.5. The samples were measured both immediately and after 60 min at room temperature, each sample was measured 3 times.

For data set [3] the following is noted: cited from earlier work. An excerpt: However, acidification can be appl ...
The test system of another data set is Kallikrein. The following applies: cited from earlier work. An excerpt: (§1) Table 1 Enzymatic processing of apelin. | column: Conversion
The next data set deals with Prolyl carboxypeptidase. The following applies: cited from earlier work.
Source text: as §1

In the next data set the test system is Furin (PCSK3). The following applies: cited from earlier work.
Source text: as §1

Data set [4] relates to G-protein-coupled apelin receptor (AR). Details: method as in PMID 23872001, PMID 18272843, PMID 29357134. The note with it: cited from earlier work. From the text: Apelin is expressed as a 77–amino acid precursor, and the C-terminal 17 residues are completely conserved in mammalians. Enzymatic processing (overviewed in Table 1) results in several active C-terminal fragments named apelin-n, specifying that a given isoform has “n” amino acids, all sharing the same 12 C-terminal residues that contain the receptor-binding site (Fig. 1).

The mark [5] stands for this setting: previously described plasma acidification step to pH 4.5.
The mark [6] stands for this setting: K2EDTA plasma acidified to pH 2.5, immediately and after 60 min at room temperature, measured 3 times.
Setting [7] is: K2EDTA plasma acidified to pH 4.5, immediately and after 60 min at room temperature, measured 3 times.
The mark [8] stands for this setting: K2EDTA plasma, non-acidified, measured immediately and after 60 min at room temperature, each sample measured 3 times.
Setting [9] is: P100 (protease inhibitor cocktail) plasma, non-acidified, immediately and after 60 min at room temperature, measured 3 times.
[10] abbreviates: P100 plasma acidified to pH 2.5, immediately and after 60 min at room temperature, measured 3 times.
Setting [11] is: P100 plasma acidified to pH 4.5, immediately and after 60 min at room temperature, measured 3 times.

Like-named read-outs stand apart in the source and are kept apart here. Where no end group is shown, it is not given here.

Regarding `CSCC[C@H](NC(=O)[C@@H]1CCCN1C(=O)CNC(=O)[C@H](CCCCN)NC(=O)[C@H](Cc1c[nH]cn1)NC(=O)[C@H](CO)NC(=O)[C@H](CC(C)C)NC(=O)[C@H](CCCNC(=N)N)NC(=O)[C@@H]1CCCN1C(=O)[C@@H](N)CCCNC(=N)N)C(=O)N1CCC[C@H]1C(=O)N[C@@H](Cc1ccccc1)C(=O)O` [Apelin-12], the “Effect of cooling with ice on stability” value in data set [1] is listed as “cooling with ice increases stability”. Moreover, the “Degradation at the immediate measurement in non-acidified conditions” value in data set [2] was “immediate degradation”. Besides, the “Storage pH giving the best stability in plasma” value in data set [2] (plasma non-acidified, pH 4.5 or pH 2.5, 60 min at room temperature) is listed as “most stable at pH 2.5”.

As to `CSCC[C@H](NC(=O)[C@@H]1CCCN1C(=O)CNC(=O)[C@H](CCCCN)NC(=O)[C@H](Cc1cnc[nH]1)NC(=O)[C@H](CO)NC(=O)[C@H](CC(C)C)NC(=O)[C@H](CCCNC(=N)N)NC(=O)[C@@H]1CCCN1C(=O)[C@H](CCCNC(=N)N)NC(=O)[C@@H](N)CCC(N)=O)C(=O)N1CCC[C@H]1C(=O)N[C@@H](Cc1ccccc1)C(=O)O` [Apelin-13], the “Stability in plasma acidified to pH 4.5” value in data set [3] (setting [5]) is reported as “provide stability”. For the same compound, the “Influence of the P100 tube (protease inhibitor cocktail) on stability” value in data set [1] is reported as “small added value”. In data set [1], the “Effect of cooling with ice on stability” value is given as “cooling with ice increases stability”. Further, the “Degradation after one hour at room temperature” value (“Degradation after one hour” for short) is reported as “minor degradation” in data set [2] (setting [6]); “minor degradation” in data set [2] (setting [7]); “rapid degradation” in data set [2] (setting [8]); “rapid degradation” in data set [2] (setting [9]); “minor degradation” in data set [2] (setting [10]); “minor degradation” in data set [2] (setting [11]). Also, the “Appearance of apelin-pyr-13 after spiking synthetic apelin-13” value in data set [2] (K2EDTA plasma non-acidified) is “minimal”; in data set [2] (K2EDTA plasma pH 2.5) it was roughly 25%; in data set [2] (K2EDTA plasma pH 4.5), roughly 3 ×. The “Degradation at the immediate measurement in non-acidified conditions” value in data set [2] was “immediate degradation”.

In the case of `CSCC[C@H](NC(=O)[C@@H]1CCCN1C(=O)CNC(=O)[C@H](CCCCN)NC(=O)[C@H](Cc1cnc[nH]1)NC(=O)[C@H](CO)NC(=O)[C@H](CC(C)C)NC(=O)[C@H](CCCNC(=N)N)NC(=O)[C@@H]1CCCN1C(=O)[C@H](CCCNC(=N)N)NC(=O)[C@H](CCC(N)=O)NC(=O)[C@H](CCCNC(=N)N)NC(=O)[C@H](CCCNC(=N)N)NC(=O)[C@H](Cc1ccccc1)NC(=O)[C@@H](N)CCCCN)C(=O)N1CCC[C@H]1C(=O)N[C@@H](Cc1ccccc1)C(=O)O` [Apelin-17], the “Degradation after one hour” value was “minor degradation” (pH 2.5) and “minor degradation” (pH 4.5). For the same compound, in data set [3] (pH 4.5), the “Stability in plasma acidified to pH 4.5” value is “provide stability”. Moreover, the Cleavage by kallikrein entry in the data set with Kallikrein is recorded as “Cleaves the 3N-terminal amino acids of apelin-17”. In addition, the “Cleavage by prolyl carboxypeptidase” value in the data set with Prolyl carboxypeptidase is “Cleaves apelin 36, 17 and pyr-apelin 13”.

“Apelin-36: synthetic apelin isoform of 36 amino acids, purchased from CPC Scientific / Phoenix Pharmaceuticals (LVQPRGSRNGPGPWQGGRRKFRRQRPRLSHKGPMPF; Apelin-36; UniProt Q9ULZ1 42-77, looked up)”: the “Stability in plasma acidified to pH 4.5” value in data set [3] (setting [5]) is given as “provide stability”. Moreover, in the data set with Furin (PCSK3), the “Conversion by furin (PCSK3)” value was “directly to apelin 13”. In the data set with Prolyl carboxypeptidase (similar to ACE-2 effect), the “Cleavage by prolyl carboxypeptidase” value is “Cleaves apelin 36, 17 and pyr-apelin 13”. For the same compound, the “Activation of the apelin receptor (AR)” value in data set [4] is “can activate the AR”. In data set [1], the “Influence of the P100 tube (protease inhibitor cocktail) on stability” value is recorded as “negative influence”. The “Effect of cooling with ice on stability” value in data set [1] was “cooling with ice increases stability”. Also, the “Degradation after one hour” value is “limited degradation” in data set [2] (setting [6]); “limited degradation” in data set [2] (setting [7]); “limited degradation” in data set [2] (setting [8]); “higher degradation” in data set [2] (setting [9]); “limited degradation” in data set [2] (setting [10]); “higher degradation” in data set [2] (setting [11]).

As to “NGPGPWQGGRRKFRRQRPRLSHKGPMPF [Apelin-28]”, in data set [2] (K2EDTA plasma non-acidified vs pH 4.5 vs pH 2.5, 60 min at room temperature), the “Influence of pH on stability in K2EDTA plasma” value is “slightly better stability in K2EDTA plasma at pH 4.5 and pH 2.5 than in non-acidified plasma”.
